US12121514B2, “Nonselective metabotropic glutamate receptor activators for treatment of attention deficit disorder and 22Q syndrome” (THE CHILDREN'S HOSPITAL OF PHILADELPHIA, priority 2015, dated 2024)
Where “and” joins values, the source holds several entries; their conditions need not be identical. Equal entries are not always repeated.

Test system: adolescent subjects with ADHD and at least one genetic alteration in an mGluR network gene
Assay: Vanderbilt ADHD score (items 1-18, parent), Phase Ib trial of NFC-1
Type: in vivo, human
Text: The Vanderbilt Rating Scale is a measure that can be completed by parents or teachers (separate forms, see Vanderbilt Rating Scale Parents and Vanderbilt Rating Scale Teachers). The Vanderbilt scale rates the child's behavior on items such as attention, finishing tasks, hyperactivity, difficulty waiting, and measures of conduct or oppositional defiant disorders—as well as measures of overall school performance and interactions with others. The first 18 items on the Vanderbilt scale correspond to those of the ADHD Rating Scale IV above while the Vanderbilt scale also includes items 19-47 related to other mental disorders including ODD (items 19-26), conduct disorder (items 27-40), anxiety (items 41, 42, and 47), and depression (items 43-46). Each of the behavioral assessment items on the Vanderbilt Scale are rated 0, 1, 2, or 3, with 0=never occurring; 1=occasionally, 2=often, and 3=very often. Thus, the ADHD Rating Scale IV, ADHD Rating Scale V, and items 1-18 of the Vanderbilt Rating Scale are equivalent scales, while additional items on the Vanderbilt Scale assess co-morbid phenotypes and disorders.
Each of the items are rated on a scale of 0, 1, 2, or 3, with 0=never; 1=occasionally, 2=often, and 3=very often. A total score of 0 to 54 is computed based on the answers to the 18 questions.
As used herein an “ADHD rating scale score,” “ADHD score” or “Vanderbilt ADHD score” are used interchangeably to refer to the computed score of the 18 items of the ADHD Rating Scale IV or V or the first 18 items of the Vanderbilt Rating Scale in any of their associated versions, e.g., for parent, teacher, or clinician to complete, and for a pediatric subject or adult subject. Clinical trials may assess the impact of drug or placebo on the ADHD score or Vanderbilt ADHD score (i.e. the score of 0 to 54 based on the first 18 items in the ADHD or Vanderbilt rating scale). In some cases, results of a clinical trial population may be analyzed by comparing the average score or a percentage change in score over time of administration of drug.
An open-label Phase Ib clinical trial was initiated to investigate the safety, pharmacokinetics and efficacy of NFC-1 (fasoracetam monohydrate) in adolescent subjects between the ages of 12 and 17 previously diagnosed with ADHD who also had at least one genetic alteration in an mGluR network gene.
Dose-escalation phase of the trial followed the PK and initial safety assessment and ran over a 5-week period. During week 1, all subjects were administered placebo capsules twice daily. After one week of placebo treatment, patients were started on 50 mg bid NFC-1 for 1 week. If safety and responsiveness data from prior dose level of fasoracetam indicated it was appropriate, subjects were then escalated to the next higher dose (100, 200, or 400 mg). […] Of the 30 trial subjects, 3 received a maximum dose of 100 mg, 9 received a maximum dose of 200 mg, and the remaining 18 received a maximum dose of 400 mg.
All efficacy assessments, except actigraphy, were made at study enrollment (“enrollment baseline”) and again, including actigraphy, once-per-week for the placebo week (“week 1” or “placebo baseline”) and at each of the 4 weeks of NFC-1 treatment. These efficacy measures include items 1-18 of the Vanderbilt scale assessing symptoms related to inattentiveness and hyperactivity-impulsiveness as well as additional questions 19-47 of the Vanderbilt scale assessing other behavioral symptoms (conducted by parent), actigraphy for quantitative measurement of activity, Quotient® ADHD test for objective measurement of micro-motion and shifts in attention state, PERMP-Math test, and CGI-I and CGI-S for assessment of global functioning. […]

[1] = relative to placebo (week 1) baseline, Tier 3, Week 3, up to 100 mg bid
[2] = relative to placebo (week 1) baseline, Tier 3, Week 4, 200 mg bid
[3] = relative to placebo (week 1) baseline, Tier 3, Week 4, up to 200 mg bid
[4] = relative to placebo (week 1) baseline, Tier 3, Week 5, 400 mg bid
[5] = relative to placebo (week 1) baseline, Tier 3, Week 5, up to 400 mg bid
[6] = relative to pre-study (enrollment) baseline, Overall, Week 2, 50 mg bid
[7] = relative to pre-study (enrollment) baseline, Overall, Week 3, 100 mg bid
[8] = relative to pre-study (enrollment) baseline, Overall, Week 3, up to 100 mg bid
[9] = relative to pre-study (enrollment) baseline, Overall, Week 4, 200 mg bid
[10] = relative to pre-study (enrollment) baseline, Overall, Week 4, up to 200 mg bid
[11] = relative to pre-study (enrollment) baseline, Overall, Week 5, 400 mg bid
[12] = relative to pre-study (enrollment) baseline, Tier 1, Week 2, 50 mg bid
[13] = relative to pre-study (enrollment) baseline, Tier 1, Week 3, 100 mg bid
[14] = relative to pre-study (enrollment) baseline, Tier 1, Week 3, up to 100 mg bid
[15] = relative to pre-study (enrollment) baseline, Tier 1, Week 4, 200 mg bid

**Q.** `O=C1CC[C@H](C(=O)N2CCCCC2)N1` [NFC-1, fasoracetam monohydrate] was tested. Which “Percent of subjects demonstrating robust improvement in Vanderbilt ADHD score (at least 40% decrease)” value [1] did it give?
**A.** 0%

**Q.** And the “Percent of subjects with improvement in Vanderbilt ADHD score (at least 25% decrease)” value [1]?
**A.** 20%

**Q.** And the “Percent of subjects completing the dose escalation to 400 mg bid that show improvement in Vanderbilt ADHD scores (at least 25% decrease)” value [2]?
**A.** 0%

**Q.** What about the “Percent of subjects completing the dose escalation to 400 mg bid that show robust improvement in Vanderbilt ADHD scores (at least 40% decrease)” value [2] of the same molecule?
**A.** 0%

**Q.** What about the “Percent of subjects demonstrating robust improvement in Vanderbilt ADHD score (at least 40% decrease)” value [3] of the same molecule?
**A.** 0%

**Q.** And the “Percent of subjects with improvement in Vanderbilt ADHD score (at least 25% decrease)” value [3]?
**A.** 0%

**Q.** What about the “Percent of subjects completing the dose escalation to 400 mg bid that show improvement in Vanderbilt ADHD scores (at least 25% decrease)” value [4] of the same molecule?
**A.** 0%

**Q.** What about the “Percent of subjects completing the dose escalation to 400 mg bid that show robust improvement in Vanderbilt ADHD scores (at least 40% decrease)” value [4] of the same molecule?
**A.** 0%

**Q.** And the “Percent of subjects demonstrating robust improvement in Vanderbilt ADHD score (at least 40% decrease)” value [5]?
**A.** 0%

**Q.** And the “Percent of subjects with improvement in Vanderbilt ADHD score (at least 25% decrease)” value [5]?
**A.** 0%

**Q.** What about the “Percent of subjects completing the dose escalation to 400 mg bid that show improvement in Vanderbilt ADHD scores (at least 25% decrease)” value [6] of the same molecule?
**A.** 41%

**Q.** And the “Percent of subjects completing the dose escalation to 400 mg bid that show robust improvement in Vanderbilt ADHD scores (at least 40% decrease)” value [6]?
**A.** 35%

**Q.** What about the “Percent of subjects demonstrating robust improvement in Vanderbilt ADHD score (at least 40% decrease)” value [6] of the same molecule?
**A.** 32%

**Q.** What about the “Percent of subjects with improvement in Vanderbilt ADHD score (at least 25% decrease)” value [6] of the same molecule?
**A.** 43%

**Q.** And the “Percent of subjects completing the dose escalation to 400 mg bid that show improvement in Vanderbilt ADHD scores (at least 25% decrease)” value [7]?
**A.** 53%

**Q.** What about the “Percent of subjects completing the dose escalation to 400 mg bid that show robust improvement in Vanderbilt ADHD scores (at least 40% decrease)” value [7] of the same molecule?
**A.** 24%

**Q.** And the “Percent of subjects demonstrating robust improvement in Vanderbilt ADHD score (at least 40% decrease)” value [8]?
**A.** 36%

**Q.** And the “Percent of subjects with improvement in Vanderbilt ADHD score (at least 25% decrease)” value [8]?
**A.** 54%

**Q.** And the “Percent of subjects completing the dose escalation to 400 mg bid that show improvement in Vanderbilt ADHD scores (at least 25% decrease)” value [9]?
**A.** 53%

**Q.** And the “Percent of subjects completing the dose escalation to 400 mg bid that show robust improvement in Vanderbilt ADHD scores (at least 40% decrease)” value [9]?
**A.** 35%

**Q.** And the “Percent of subjects demonstrating robust improvement in Vanderbilt ADHD score (at least 40% decrease)” value [10]?
**A.** 43%

**Q.** What about the “Percent of subjects with improvement in Vanderbilt ADHD score (at least 25% decrease)” value [10] of the same molecule?
**A.** 68%

**Q.** What about the “Percent of subjects completing the dose escalation to 400 mg bid that show improvement in Vanderbilt ADHD scores (at least 25% decrease)” value [11] of the same molecule?
**A.** 82%

**Q.** And the “Percent of subjects completing the dose escalation to 400 mg bid that show robust improvement in Vanderbilt ADHD scores (at least 40% decrease)” value [11]?
**A.** 47%

**Q.** And the “Percent of subjects with improvement in Vanderbilt ADHD score (at least 25% decrease)” value (relative to pre-study (enrollment) baseline, Overall, Week 5, up to 400 mg bid, monohydrate)?
**A.** 78% and 75-80%

**Q.** What about the “Percent of subjects completing the dose escalation to 400 mg bid that show improvement in Vanderbilt ADHD scores (at least 25% decrease)” value [12] of the same molecule?
**A.** 56%

**Q.** What about the “Percent of subjects completing the dose escalation to 400 mg bid that show robust improvement in Vanderbilt ADHD scores (at least 40% decrease)” value [12] of the same molecule?
**A.** 44%

**Q.** What about the “Percent of subjects demonstrating robust improvement in Vanderbilt ADHD score (at least 40% decrease)” value [12] of the same molecule?
**A.** 35%

**Q.** What about the “Percent of subjects with improvement in Vanderbilt ADHD score (at least 25% decrease)” value [12] of the same molecule?
**A.** 47%

**Q.** And the “Percent of subjects completing the dose escalation to 400 mg bid that show improvement in Vanderbilt ADHD scores (at least 25% decrease)” value [13]?
**A.** 89%

**Q.** What about the “Percent of subjects completing the dose escalation to 400 mg bid that show robust improvement in Vanderbilt ADHD scores (at least 40% decrease)” value [13] of the same molecule?
**A.** 44%

**Q.** What about the “Percent of subjects demonstrating robust improvement in Vanderbilt ADHD score (at least 40% decrease)” value [14] of the same molecule?
**A.** 50%

**Q.** What about the “Percent of subjects with improvement in Vanderbilt ADHD score (at least 25% decrease)” value [14] of the same molecule?
**A.** 75%

**Q.** And the “Percent of subjects completing the dose escalation to 400 mg bid that show improvement in Vanderbilt ADHD scores (at least 25% decrease)” value [15]?
**A.** 89%

**Q.** What about the “Percent of subjects completing the dose escalation to 400 mg bid that show robust improvement in Vanderbilt ADHD scores (at least 40% decrease)” value [15] of the same molecule?
**A.** 56%

**Q.** What about the “Percent of subjects demonstrating robust improvement in Vanderbilt ADHD score (at least 40% decrease)” value (relative to pre-study (enrollment) baseline, Tier 1, Week 4, up to 200 mg bid) of the same molecule?
**A.** 56%
